Results reported in patent US9981961B2, “Deoxycytidine kinase inhibitors” (The Regents of the University of California, priority 2013, dated 2018).

Legend:
[1] = in vitro; details: human, microsomes
[2] = system: dCTP and dTTP pools of CEM cells; assay: Intracellular dNTP pool measurement in CEM cells; type: cell-based, human; details: 24 hr, DI-39 1 μM, dT 50 μM, or both
[3] = Solubility statement; type: physicochemical
[4] = Tolerability in NSG mice (body weight, peripheral blood counts); type: in vivo; details: twice/day for 7 days, alone or in combination with dT
From the text: All mice were anesthetized and whole blood was obtained through cardiac puncture. For peripheral blood counts, samples were collected in tubes containing EDTA and submitted to UCLA Division of Lab Animal Medicine for analysis.

[5] = Pharmacokinetics of DI-39 in plasma and tumor tissue (LC/MS/MS-MRM); type: in vivo; details: mouse, ip
Description: To determine the pharmacokinetic profile of DI-39, C57Bl/6 female mice were dosed with DI-39 via intraperitoneal injection following the protocol that was described previously (Murphy et al., 2013). Dose formulation include 10% DMSO and 40% Captisol (SBE-β-CD, a polyanionic variably substituted sulfobutyl ether of β-cyclodextrin, (Stella and He, 2008)) in water. Approximately 75 μL of whole blood was obtained at various time points starting 5 to 360 minutes through retro-orbital sinus bleed using hematocrit capillary tubes. Approximated values of the Area Under the Curve (AUC), clearance rate (CL), half-life (T1/2), maximum concentration in the plasma (Cmax) and time to reach the maximum concentration (Tmax) were calculated using Boomer/Multi-Forte P K Functions from Microsoft Excel.
For the DI-39 tumoral and plasma uptake study using LC/MS/MS-MRM, tumor-bearing NSG mice were injected with 50 mg/kg DI-39 intraperitoneally at 0, 2, 4, 8 and 12 hours prior to sacrifice. […] The ion transitions for DI-39 and DI-70 (525.2→383.3 and 550.2→408.2 respectively) were recorded under previously optimized conditions. […]

[6] = target: dCK in CCRF-CEM cells (Homo sapiens, UniProt P27707); assay: cell-based
Description: These were performed in CCRF-CEM acute lymphoblastic leukemia cells as previously described.^8, 9
dCK Uptake Assay Performed in Cell Culture. […] For the uptake assays cells were seeded at a density of 50,000 cells/well in Millipore MultiScreen GV 96 well plates. […] After 1 h at 37° C., cells were washed four times with ice cold phosphate-buffered saline (PBS) using the Millipore Vacuum Manifold. The amount of incorporated probe was measured by scintillation counting with the PerkinElmer Microbeta.

[7] = target: dCK activity in liver (Mus musculus, UniProt P43346); assay: 18F-L-FAC PET liver assay of in vivo dCK inhibition; details: mice
Description: Evaluation of In Vivo Inhibition of dCK Activity Via a New PET PD Assay. […] Four hours later, treated mice were injected intravenously with ^18F-L-FAC; one hour after probe injection, mice were imaged by mPET/CT. The readout for the PET PD assay was the reduction in the accumulation of ^18F-L-FAC in dCK-positive tissues in dCK inhibitor versus vehicle treated mice. […] Since the reproducibility in the dCK-dependent tissue retention of ^18F-L-FAC was most consistent in the liver^27, we chose to quantify ^18F-L-FAC liver retention in order to compare the in vivo efficacy of the various dCK inhibitors.
In Vivo MicroPET/CT Imaging Studies. […] Four hours post-treatment mice were injected intravenously with 70 μCi of ^18F-L-FAC. For all mPET/CT studies, a 1 h interval was allowed between probe administration and mPET/CT scanning (Inveon, Siemens Medical Solutions USA Inc.; microCAT, Imtek Inc.). Static mPET images were acquired for 600 s. Images were analyzed using OsiriX Imaging Software Version 3.8.

[8] = IC50 (nM), Table 3, inhibition of 3H-deoxycytidine (dCyd) uptake in CEM cells, mean ± SD of n ≥ 2 unless (n = 1)
[9] = IC50, Example 4 list, assay and unit inferred, values correspond to the CEM 3H-dC uptake data of Tables 3 and 7
[10] = IC50, Example 5 list, assay and unit inferred, values correspond to the CEM data of Table 3

dCK in CCRF-CEM cells, sequence (P27707 whole entry): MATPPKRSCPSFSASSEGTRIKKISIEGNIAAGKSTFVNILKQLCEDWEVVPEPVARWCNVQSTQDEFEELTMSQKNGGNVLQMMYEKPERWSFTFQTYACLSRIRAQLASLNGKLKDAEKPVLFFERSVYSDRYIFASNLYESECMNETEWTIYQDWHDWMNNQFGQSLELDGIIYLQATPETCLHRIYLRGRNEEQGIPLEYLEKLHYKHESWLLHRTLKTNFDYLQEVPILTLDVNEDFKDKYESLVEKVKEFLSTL
dCK activity in liver, sequence (P43346 whole entry): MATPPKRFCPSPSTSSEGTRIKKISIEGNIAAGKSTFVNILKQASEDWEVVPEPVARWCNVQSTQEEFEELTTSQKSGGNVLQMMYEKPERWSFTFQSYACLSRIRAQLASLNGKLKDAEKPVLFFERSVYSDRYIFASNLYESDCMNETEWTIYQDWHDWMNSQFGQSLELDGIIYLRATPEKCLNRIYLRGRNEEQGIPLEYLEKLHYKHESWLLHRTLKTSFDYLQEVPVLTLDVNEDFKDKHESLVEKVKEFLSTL

SMILES | IC50 [6, 8] [nM] | IC50 [6, 9] [nM] | further results
COc1ccc(-c2nc(CSc3nc(N)cc(N)n3)c(C)s2)cc1OCCF [Compound 15a, 2-(((2-(3-(2-fluoroethoxy)-4-methoxyphenyl)-5-methylthiazol-4-yl)methyl)thio)pyrimidine-4,6-diamine] | – | – | half-life at 1 μM [1]: 16.3 min; microsomal CLint at 1 μM [1]: 142 µL/min/mg
CCCc1sc(-c2ccc(OC)c(OCCNS(C)(=O)=O)c2)nc1CSc1nc(N)cc(N)n1 [Compound 37, N-(2-(5-(4-(((4,6-diaminopyrimidin-2-yl)thio)methyl)-5-propylthiazol-2-yl)-2-methoxyphenoxy)ethyl)methanesulfonamide] | – | – | decrease of dCTP pool [2]: ~30%; solubility in aqueous saline solutions [3]: limited solubility; effect on body weight [4]: did not affect body weight; effects on RBCs, hemoglobin, platelets or neutrophils [4]: no detectable effects; half-life ([5]; female, plasma, C57Bl/6 mice, intraperitoneal injection): ~50 min; concentration at 8 hr ([5]; 8 hr after single dose administration, 50 mg/kg intraperitoneal, CEM tumor-bearing NSG mice, read-out: drug present in tumor tissues): ~15 nM
CCCc1sc(-c2ccc(N(CCNS(C)(=O)=O)S(C)(=O)=O)c(OCCNS(C)(=O)=O)c2)nc1CSc1nc(N)cc(N)n1 [Compound S2] | 1200 | 1200 | –
CCCc1sc(-c2ccc(OC)c(OCCCF)c2)nc1CSc1nc(N)cc(N)n1 [Compound S3] | 2.5 | 2.51 | –
CCCc1sc(-c2ccc(OCCF)c(OCC)c2)nc1CSc1nc(N)cc(N)n1 [Compound S4] | 2.8 | 2.86 | –
CCCc1sc(-c2ccc(F)c(OCCCF)c2)nc1CSc1nc(N)cc(N)n1 [Compound S5] | 31.7 | 31.7 | –
CCCc1sc(-c2ccc(F)c(OCCF)c2)nc1CSc1nc(N)cc(N)n1 [Compound S6] | 23.3 | 23.4 | –
CCCc1sc(-c2ccnc(OCCF)c2)nc1CSc1nc(N)cc(N)n1 [Compound S7] | 6.8 | 6.84 | –
[2H]C([2H])(Sc1nc(N)cc(N)n1)c1nc(-c2ccnc(OCCF)c2)sc1CCC [Compound S8] | 30 | 30 | –
CCCc1sc(-c2ccc(OC)c(OCCOCCOCCSc3nc(N)cc(N)n3)c2)nc1CSc1nc(N)cc(N)n1 [Compound S10] | 4.7 | 4.75 | –
CCCc1sc(-c2ccc(OC)c(OCCOCCOCCO)c2)nc1CSc1nc(N)cc(N)n1 [Compound S11] | 1.06 | 1.06 | –
COc1ccc(-c2cc(CSc3nc(N)cc(N)n3)c(C)o2)cc1OCCF [Compound S12] | 13500 | 13800 | –
COc1cc(-c2cc(CSc3nc(N)cc(N)n3)c(C)o2)ccc1OCCF [Compound S14] | 276 | 276 | –
CCCc1sc(-c2ccc(OC)c(OCCF)c2)nc1CCc1nc(N)cc(N)n1 [Compound S15] | 664 | 664 | –
CCCc1sc(-c2ccc(OC)c(OCCOCCOCCF)c2)nc1CSc1nc(N)cc(N)n1 [Compound S16] | 4.22 | 4.21 | –
CCCc1sc(-c2cccc(OCCOCCOCCF)c2)nc1CSc1nc(N)cc(N)n1 [Compound S17] | 69.1 | 69.1 | –

SMILES | IC50 [6, 8] [nM] | IC50 [6, 9] [nM] | further results
COc1cc(-c2cc(CSc3nc(N)cc(N)n3)c(C)s2)ccc1OCCF [Compound S18] | 262 | 263 | –
CCCc1sc(-c2cc(F)cc(OCCOCCOCCF)c2)nc1CSc1nc(N)cc(N)n1 [Compound S19] | 33.7 | 33.7 | –
CCCc1sc(-c2ccc(OC)c(OCCOCCOCCOC)c2)nc1CSc1nc(N)cc(N)n1 [Compound S20, 2-(((2-(4-methoxy-3-(2-(2-(2-methoxyethoxy)ethoxy)ethoxy)phenyl)-5-propylthiazol-4-yl)methyl)thio)pyrimidine-4,6-diamine] | 3.31 | 3.31 | –
CCCc1sc(-c2ccc(OCCOCCOCCOC)c(OCC)c2)nc1CSc1nc(N)cc(N)n1 [Compound S21] | 2.37 | 2.37 | –
CCCc1sc(-c2ccc(OC)c(OCCOCCOCCOC)c2)nc1C(C)Sc1nc(N)cc(N)n1 (stereo not drawn) [Compound S22] | 6 | – | IC50 [6, 10]: 6.01 nM
COCCOCCOCCOc1cc(-c2nc(C(C)Sc3nc(N)cc(N)n3)c(C)s2)ccc1OC (stereo not drawn) [Compound S23] | 8.03 | – | IC50 [6, 10]: 8.03 nM
COCCOCCOCCOc1ccc(-c2nc(C(C)Sc3nc(N)cc(N)n3)c(C)s2)cc1OC (stereo not drawn) [Compound S24] | 6.1 | – | IC50 [6, 10]: 6.12 nM
COCCOCCOCCOc1cc(-c2nc(CSc3nc(N)cc(N)n3)c(C3CC3)s2)ccc1OC [Compound S25] | 23 | 5.28 | –
COCCOCCOCCOc1cc(-c2nc(CSc3nc(N)cc(N)n3)c(C)s2)ccc1OC [Compound S26] | 9.1 | 9.3 | –
COCCOCCOCCOc1cc(-c2nc(C(C)Sc3nc(N)cc(N)n3)c(C3CC3)s2)ccc1OC (stereo not drawn) [Compound S27] | 3.7 | – | IC50 [6, 10]: 2.47 nM; outcome in the PET L-FAC liver assay [7]: failed
COCCOCCOCCOc1cc(-c2nc(C(C)Sc3nc(N)cc(N)n3)c(-c3ccccc3)s2)ccc1OC (stereo not drawn) [Compound S28] | 98.9 | – | –
Cc1sc(-c2cc(F)cc(OCCNS(C)(=O)=O)c2)nc1C(C)Sc1nc(N)cc(N)n1 (stereo not drawn) [Compound S31] | 9.07 | – | –
CCCc1sc(-c2ccc(OC)c(OCCO)c2)nc1CSc1cc(N)nc(N)n1 [DI-42] | – | 330 | –
CCCc1sc(-c2ccnc(OCCNS(C)(=O)=O)c2)nc1CSc1nc(N)cc(N)n1 [DI-46] | – | 1180 | –
COc1cc(-c2cc(CSc3nc(N)cc(N)n3)sc2C)ccc1OCCF [DI-63] | – | 1580 | –
COCCOCCOCCOc1cc(-c2nc(CSc3nc(N)cc(N)n3)c(C(Sc3nc(N)cc(N)n3)c3ccccc3)s2)ccc1OC (stereo not drawn) [DI-78] | – | 1660 | –
